# Calls of active or inactive are those of the source. The rule behind the calls is not given here.
# Tests used:
# Phytophthora infestans [1] = experiment: Antioomycete activity against Phytophthora infestans isolate 208m2 assessed as inhibition of zoospore germination at 3.7 uM after 24 hr by light microscopy; assay type: functional, organism-based
# Phytophthora infestans [2] = experiment: Antioomycete activity against Phytophthora infestans isolate 208m2 expressing GFP assessed as mature (3-weeks-old) mycelial growth inhibition at 1 to 100 uM applied as a drop solution measured after 24 hr by fluorescence stereomicroscopic analysis; assay type: functional, organism-based
# Phytophthora infestans [3] = experiment: Antioomycete activity against Phytophthora infestans isolate 208m2 assessed as inhibition of zoospore germination at 10 nM after 24 hr by light microscopy; assay type: functional, organism-based
# Phytophthora infestans [4] = experiment: Antioomycete activity against Phytophthora infestans isolate 208m2 assessed as zoospore germtube length at 10 nM to 100 uM after 24 hr by light microscopy; assay type: functional, organism-based
# Colletotrichum coccodes [5] = experiment: Fungicidal activity against Colletotrichum coccodes CBS 369.75 assessed as one-day-old mycelial growth inhibition at 0.01 uM measured every 24 hr by multiwell plate assay; assay type: functional, organism-based
# Colletotrichum coccodes [6] = experiment: Fungicidal activity against Colletotrichum coccodes CBS 369.75 assessed as one-day-old mycelial growth inhibition at 100 uM measured every 24 hr by multiwell plate assay; assay type: functional, organism-based
# Phytophthora infestans [7] = experiment: Antioomycete activity against Phytophthora infestans isolate 208m2 assessed as lysis of zoospores at 100 uM after 24 hr by light microscopy; assay type: functional, organism-based
# Phytophthora infestans [8] = experiment: Antioomycete activity against Phytophthora infestans isolate 208m2 expressing GFP assessed as one-day-old mycelial growth inhibition at 1 mM by plate reader analysis; assay type: functional, organism-based
# Colletotrichum coccodes [9] = experiment: Fungicidal activity against Colletotrichum coccodes CBS 369.75 assessed as one-day-old mycelial growth inhibition at 1 uM measured every 24 hr by multiwell plate assay; assay type: functional; conditions: CBS 369.75, 24 h, read-out: GI
# Phytophthora infestans [10] = experiment: Antioomycete activity against Phytophthora infestans isolate 208m2 assessed as inhibition of zoospore germination at 100 nM after 24 hr by light microscopy; assay type: functional; conditions: isolate 208m2, 24 h
# Phytophthora infestans [11] = experiment: Antioomycete activity against Phytophthora infestans isolate 208m2 assessed as zoospore germination at 1 uM after 24 hr by light microscopy; assay type: functional
# Solanum tuberosum = experiment: Phytotoxicity against Solanum tuberosum cv. Desiree (potato) leaves at 1000 uM; assay type: organism-based; conditions: in vivo
# Phytophthora infestans [12] = experiment: Antioomycete activity against Phytophthora infestans isolate 208m2 infected potato plants assessed as decrease in fungal biomass at 10 uM applied on the abaxial leaf surface 2 hr prior to zoospore inoculation measured 3 days after fungal challenge by realtime PCR analysis; assay type: functional
# Phytophthora infestans [13] = experiment: Antioomycete activity against Phytophthora infestans isolate 208m2 infected potato plants assessed as decrease in fungal biomass at 100 uM applied on the abaxial leaf surface 2 hr prior to zoospore inoculation measured 3 days after fungal challenge by realtime PCR analysis; assay type: functional
smiles,measurement,setting,value
CCCCCCCCCCCCC(=O)/C=C/C(=O)O [listing 1 of 2 here],inhibition,Phytophthora infestans [1],Active
same,growth inhibition (GI),Phytophthora infestans [2],Active
same,inhibition,Phytophthora infestans [3],Active
same,Activity,Phytophthora infestans [4],Active
same,growth inhibition (GI),Colletotrichum coccodes [5],Active
same,growth inhibition (GI),Colletotrichum coccodes [6],Active
same,Activity,Phytophthora infestans [7],Active
same,growth inhibition (GI),Phytophthora infestans [8],Active
CCCCCCCCCCCCC(=O)/C=C/C(=O)O [listing 2 of 2 here],inhibition of growth at 1 µM,Colletotrichum coccodes [9],1.5%
same,inhibition at 0.1 µM,Phytophthora infestans [10],> 50%
same,Activity,Phytophthora infestans [11],<10%
CCCCCCCCCCCCC(=O)/C=C/C(=O)[O-].[Na+],Activity,Solanum tuberosum,Non-toxic
same,inhibition at 10 µM,Phytophthora infestans [12],80%
same,inhibition at 100 µM,Phytophthora infestans [13],95%
